Test system: Salmonella outer membrane
Assay: Outer membrane permeabilization (NPN fluorescence)
Format: cell-based, Salmonella enterica serovar Typhimurium strain SL1344
Conditions: KFF-ASOs 10 µM, CTAB 10 µM, PMXB 0.4 µM; added after 14 min
Source text: Because the negASOs are ineffective in bacterial cells despite their activity in cell-free systems, we investigated if these ASOs affected the ability of the KFF carrier peptide to induce OM permeabilization. Therefore, we used the hydrophobic fluorophore N-phenylnaphthylamine (NPN), a dye that turns fluorescent after binding to hydrophobic regions within cell membranes. This only occurs in cells with a compromised OM ([Ghosh et al. 2016]; [Ellis et al. 2019]). […] However, when conjugated to negASOs, the KFF carrier is unable to permeabilize the OM (Fig. 10). This could potentially be due to electrostatic interactions between the negASOs and the positively charged KFF.
The experiments were performed by modifying previously published protocols ([Ghosh et al. 2016]; [Ellis et al. 2019]; [Zheng et al. 2021]). Salmonella (WT SL1344, JVS-1574) were grown overnight in 4 mL MHB medium at 37°C (with shaking at 220 rpm). Then the culture was diluted 1:100 and grown until OD600 0.5 (∼2 × 10^8 cfu/mL). This culture was harvested and washed two times with 5 mM HEPES and further diluted to OD600 0.2 in 5 mM HEPES supplemented with 5 mM Glucose (pH 7.2). These cells were then incubated with NPN (Sigma) at a final concentration of 10 µM. One hundred and ninety microliters of NPN-treated cells were transferred into 96-well back plates with transparent bottoms and fluorescence (excitation = 350 nm, emission = 420 nm) was recorded for 60 min (reading was performed every minute) using a Synergy H1 plate reader (Biotek). On the 14th minute, 10 µL of the test compounds (10 µM final concentration) was added into the wells. CTAB (Sigma) 10 µM (final concentration) or PMXB (Sigma) (final concentration of 0.4 µM) were used as positive controls, while water was used as negative control. The fluorescence of the wells was monitored using the same settings as above. The plots were created using OrginPro 2023. The experiment was performed twice and Figure 10 is a representative example of two independent experiments.

| Molecule | Outer membrane permeabilization, NPN fluorescence (in words) |
| --- | --- |
| CCCCCCCCCCCCCCCC[N+](C)(C)C.[Br-] [CTAB, reference compound] | cause a rapid increase in fluorescence |
| Polymyxin B [reference compound] | cause a rapid increase in fluorescence |

Reference: paper PMC11098465, “A comparative analysis of peptide-delivered antisense antibiotics using diverse nucleotide mimics” (RNA, 2024)
